The record followed here is patent US20070161592A1, “Method of treating fear” (priority 2005, published 2007).

This data set has as its system NR2A, NR1, GluR1, and actin. The data set can be described thus: Western blot of other membrane proteins in ACC after siRNA electroporation. The format is in vivo, mouse. As to conditions: four days after electroporation, vs control siRNA. Here is the method:
Equal amounts of protein from the ACC and hippocampus were separated and electrotransferred onto PDVF membranes (Invitrogen), which were probed with anti-NR2A, anti-NR2B (Chemicon), and anti-PSD-95 (ABR) and with β-actin (Sigma) as a loading control. The membranes were incubated with horseradish peroxidase-conjugated secondary antibodies (anti-mouse IgG for PSD-95 and anti-rabbit IgG for the other primary antibodies), and bands were visualized using an ECL system (Perkin Elmer). Synaptosomal membrane fractions (LP1) were prepared as previously described (Dunah and Standaert, 2001) and solubilized using 1% SDS in TEVP buffer: 10 mM Tris-HCl, pH 7.4, 1 mM EDTA, 1 mM EGTA, 1× protease inhibitor cocktail (Sigma), and 1× phosphatase inhibitor cocktail 1 and 2 (Sigma). […] Results are expressed as means±SEM. […]
To inhibit NR2B expression specifically in the prefrontal cortex, including the ACC, siRNA was bilaterally delivered against NR2B with a reporter plasmid encoding EGFP by microelectroporation (Wei et al., 2003) (FIG. 8A). […] The expression levels of other NMDAR subunits (NR2A and NR1) and AMPA receptor subunit GluR1 were measured, and actin was used as a control in the ACCs of NR2B siRNA and control siRNA electroporated mice.
Background: Immunoblotting shows a protein as a band on a membrane.

On to “NR2B siRNA: siRNA corresponding to NR2B, sense 5′-GGAUGAGUCCUCCAUGUUCtt-3′, antisense 5′-GAACAUGGAGGACUCAUCCtt-3′, Silencer Pre-designed siRNA ID #61879, Ambion (sense GGAUGAGUCCUCCAUGUUCTT; antisense GAACAUGGAGGACUCAUCCTT; chemistry not given here)”, for which the “expression levels of NR2A, NR1, GluR1, and actin” value is “not significantly changed”.
